In ChEMBL document CHEMBL1151879, “Discovery of novel benzene 1,3-dicarboxylic acid inhibitors of bacterial MurD and MurE ligases by structure-based virtual screening approach” (Bioorg Med Chem Lett, 2009):

Experiments:
Escherichia coli [1] = experiment: Inhibition of Escherichia coli MurD assessed as residual activity at 100 uM after 15 mins by malachite green assay
Escherichia coli [2] = experiment: Inhibition of Escherichia coli MurE assessed as residual activity at 100 uM after 15 mins by malachite green assay
[3] = Inhibition of Escherichia coli MurD
[4] = Inhibition of MurE assessed as residual activity
[5] = Inhibition of MurD
[6] = Inhibition of Escherichia coli MurE after 15 mins by malachite green assay
Staphylococcus aureus = experiment: Antibacterial activity against Staphylococcus aureus ATCC 29213; type: functional
Enterococcus faecalis = experiment: Antibacterial activity against Enterococcus faecalis ATCC 29212; type: functional
Escherichia coli [7] = experiment: Antibacterial activity against Escherichia coli ATCC 25922; type: functional
Pseudomonas aeruginosa = experiment: Antibacterial activity against Pseudomonas aeruginosa ATCC 27853; type: functional
Escherichia coli [8] = experiment: Inhibition of Escherichia coli MurE assessed as residual activity at 250 uM after 15 mins by malachite green assay
Escherichia coli [9] = experiment: Inhibition of Escherichia coli MurD assessed as residual activity at 250 uM after 15 mins by malachite green assay
[10] = Inhibition of Escherichia coli MurD after 15 mins by malachite green assay

COc1cccc(/C=C2\SC(=S)N(C(CCC(=O)O)C(=O)O)C2=O)c1 (stereo not drawn)
Activity (Escherichia coli [1]): 98%
Activity (Escherichia coli [2]): 89%

C[C@@H](NS(=O)(=O)Cc1ccc([N+](=O)[O-])cc1)C(=O)N[C@H](C)P(=O)(O)C[C@@H](CC(=O)O)C(=O)O
IC50 [3]: 78 µM
Activity [4]: 8%

CCCCOc1ccc2cc(S(=O)(=O)N[C@@H](CCC(=O)O)C(=O)O)ccc2c1
IC50 [5]: 710 µM

Cc1cc(/C=C2/C(=O)NC(=S)N(c3ccc(Cl)cc3)C2=O)c(C)n1-c1cc(C(=O)O)cc(C(=O)O)c1
Activity (Escherichia coli [1]): 69%
IC50 [6]: 97 µM

CCOc1ccc2nc(SCC(=O)Nc3cc(C(=O)O)cc(C(=O)O)c3)sc2c1
Activity (Escherichia coli [1]): 98%
Activity (Escherichia coli [2]): 84%

COC(=O)CC[C@@H](NC(=O)c1ccc(/C=C2\SC(=S)NC2=O)cc1)C(=O)OC
MBC (Staphylococcus aureus): > 128 mg/L
MIC (Staphylococcus aureus): > 128 mg/L
MBC (Enterococcus faecalis): > 128 mg/L
MIC (Enterococcus faecalis): > 128 mg/L
MBC (Escherichia coli [7]): > 128 mg/L
MIC (Escherichia coli [7]): > 128 mg/L
MBC (Pseudomonas aeruginosa): > 128 mg/L
MIC (Pseudomonas aeruginosa): > 128 mg/L

O=C(O)c1cc(C(=O)O)cc(-c2ccc(/C=C3/SC(=S)N(NC(=O)c4cccs4)C3=O)o2)c1
Activity (Escherichia coli [8]): 81%
Activity (Escherichia coli [9]): 82%

COc1ccc(-c2ccc(/C=C3\SC(=S)N(C(CCC(=O)O)C(=O)O)C3=O)o2)c([N+](=O)[O-])c1 (stereo not drawn)
Activity (Escherichia coli [8]): 70%
Activity (Escherichia coli [1]): 87%
Activity (Escherichia coli [2]): 70%

O=C(O)CC[C@@H](NC(=O)c1ccc(CNc2ccc(/C=C3\SC(=S)NC3=O)cc2)cc1)C(=O)O
MBC (Staphylococcus aureus): > 128 mg/L
MIC (Staphylococcus aureus): > 128 mg/L
MBC (Enterococcus faecalis): > 128 mg/L
MIC (Enterococcus faecalis): > 128 mg/L
MBC (Escherichia coli [7]): > 128 mg/L
MIC (Escherichia coli [7]): > 128 mg/L
MBC (Pseudomonas aeruginosa): > 128 mg/L
MIC (Pseudomonas aeruginosa): > 128 mg/L

O=C(O)CC[C@H](NS(=O)(=O)c1ccc2cc(O)ccc2c1)C(=O)O
IC50 [3]: 90 µM

CCOC(=O)COc1ccc2cc(S(=O)(=O)N[C@H](CCC(=O)O)C(=O)O)ccc2c1
IC50 [3]: 192 µM

Cc1cc(C=C2C(=O)NC(=S)NC2=O)c(C)n1-c1cc(C(=O)O)cc(C(=O)O)c1
Activity (Escherichia coli [1]): 99%
Activity (Escherichia coli [2]): 76%

C[C@@H](NS(=O)(=O)Cc1ccc([N+](=O)[O-])cc1)C(=O)N[C@H](C)P(=O)(O)C[C@H](CCC(=O)O)C(=O)O
IC50 [3]: 78 µM

O=C(O)c1cc(C(=O)O)cc(-c2ccc(/C=C3/SC(=S)N(c4ccc5c(c4)OCO5)C3=O)o2)c1
IC50 [10]: 270 µM
IC50 [6]: 32 µM

O=C(O)CCC(C(=O)O)N1C(=O)/C(=C/c2ccc(-c3ccc([N+](=O)[O-])cc3)o2)SC1=S (stereo not drawn)
Activity (Escherichia coli [1]): 74%
IC50 [6]: 61 µM

O=C(CSc1nc2ccccc2s1)Nc1cc(C(=O)O)cc(C(=O)O)c1
Activity (Escherichia coli [1]): 97%
Activity (Escherichia coli [2]): 94%

CCc1ccccc1N1C(=O)/C(=C\c2cc(C)n(-c3cc(C(=O)O)cc(C(=O)O)c3)c2C)C(=O)NC1=S
Activity (Escherichia coli [1]): 92%
Activity (Escherichia coli [2]): 55%

CCCCCOc1ccc2cc(S(=O)(=O)N[C@H](CCC(=O)O)C(=O)O)ccc2c1
IC50 [3]: 239 µM

CCCCOc1ccc2cc(S(=O)(=O)N[C@H](CCC(=O)O)C(=O)O)ccc2c1
IC50 [5]: 276 µM

CCOc1ccc2[nH]c(SCC(=O)Nc3cc(C(=O)O)cc(C(=O)O)c3)nc2c1
Activity (Escherichia coli [1]): 89%
Activity (Escherichia coli [2]): 95%

N#Cc1ccc(COc2ccc3cc(S(=O)(=O)N[C@H](CCC(=O)O)C(=O)O)ccc3c2)cc1
IC50 [3]: 134 µM

Cc1cc(/C=C2/C(=O)NC(=S)N(c3cccc(Cl)c3)C2=O)c(C)n1-c1cc(C(=O)O)cc(C(=O)O)c1
Activity (Escherichia coli [1]): 90%
IC50 [6]: 104 µM

C[C@@H](NC(=O)/C=C/c1ccc2c(c1)OCO2)P(=O)(O)C[C@H](CCC(=O)O)C(=O)O
IC50 [3]: 95 µM

Cc1cc(/C=C2/C(=O)NC(=S)N(c3ccccc3)C2=O)c(C)n1-c1cc(C(=O)O)cc(C(=O)O)c1
IC50 [6]: 89 µM

O=C(O)CC[C@@H](NC(=O)c1ccc(/C=C2\SC(=S)NC2=O)cc1)C(=O)O
MBC (Staphylococcus aureus): > 128 mg/L
MIC (Staphylococcus aureus): > 128 mg/L
MBC (Enterococcus faecalis): > 128 mg/L
MIC (Enterococcus faecalis): > 128 mg/L
MBC (Escherichia coli [7]): > 128 mg/L
MIC (Escherichia coli [7]): > 128 mg/L
MBC (Pseudomonas aeruginosa): > 128 mg/L
MIC (Pseudomonas aeruginosa): > 128 mg/L

O=C(O)CC[C@@H](NS(=O)(=O)c1ccc2cc(OCCCc3ccccc3)ccc2c1)C(=O)O
IC50 [3]: 180 µM

Cc1cc(/C=C2/C(=O)NC(=S)N(c3cccc(Cl)c3Cl)C2=O)c(C)n1-c1cc(C(=O)O)cc(C(=O)O)c1
Activity (Escherichia coli [1]): 83%
IC50 [6]: 79 µM
